Reference: paper PMC5415745, “Drug-transporter mediated interactions between anthelminthic and antiretroviral drugs across the Caco-2 cell monolayers” (BMC Pharmacology & Toxicology, 2017)
Values joined by “and” are separate entries in the source; they are usually repeats but may differ in a detail not shown here. Equal entries are not always repeated.

Experiments:
Caco-2 cell monolayers = experiment: Bidirectional (AP→BL, BL→AP) drug transport across Caco-2 cell monolayers in transwells: cumulative transport, Papp, efflux ratio; HPLC or radiolabeled assay; conditions: for Basal to apical transport (cumulative, receiver): individual samples 1-3; for PappAB / PappBA: individual samples; for Apical to basal transport / Basal to apical transport: samples 1-3
Protocol: (§1) The monolayers used were of between passage 20 and 65 after 15 days of growth. Each experiment was performed in duplicate using two six well-transwell culture plates. The cells were trypsinized as described earlier, and after centrifugation the pellet re-suspended in fresh DMEM (+15%), and the cells counted using a cell counter. A volume of DMEM was added enough to give a cell count of 2 × 10^6 cells per ml, and cells were seeded on the transwell culture plates at a density of 2 × 10^4 cells/cm^2 (~ 100,000 cells per well, since insert membrane growth area = 4.67 cm^2). The plates were then incubated at 37°C and 10% CO2 in a humidified chamber and the media changed every 2-3 days, by aspirating using a suction pump and replacing with an equal volume of DMEM. Transport experiments were conducted 15 to 20 days after seeding. The TEER across the cell monolayers was monitored using a Millicell-ERS in order to assess cell monolayer integrity and the monolayers considered appropriate for the experiment when the TEER values were typically above 500 cm^2 [49, 70].
(§2) Prior to transport studies, each monolayer was washed and equilibrated with the transport medium (DMEM without FBS). The medium was removed from all AP and BL compartments of the transwells and replaced with 2 ml of the transport medium (DMEM alone), to both compartments and equilibrated for 1 h (37°C, 10% CO2 incubator), after which the TEER was re-assessed and labeled. The medium was then removed from both compartments and replaced with an equal volume of pre-warmed medium containing the compound of interest at the appropriate concentration. For the AP → BL transport, 2 ml of medium containing the desired drug was placed in the AP chamber and 2 ml of the medium alone in the BL chamber, whereas 2 ml of medium containing the drug was placed in the BL and 2 ml of medium on the AP chamber for the BL → AP transport [71]. The effect of the second drug was then assessed by adding the medium containing the original drug and the drug under study to the AP side for AP → BL transport with the medium containing the original drug alone in the BL chamber, and vice-versa for the BL → AP transport. Transport in each direction was done in triplicate. The transwell plates were then incubated (37°C, 10% CO2 incubator), and 100μl of the samples from the AP and BL compartments were taken at 60, 120, 180 and 240 min and quantified either by HPLC method described earlier [45], or by the use of a liquid scintillating counter depending on the drug under study. The HPLC method involved liquid - liquid extraction followed by ultra-high performance liquid chromatography using a Hypurity C18 column and ultraviolet detection set at a wavelength of 215 nm. The mobile phase consisted of ammonium formate, acetonitrile and methanol (57:38:5 v/v). Separation was facilitated via isocratic elution at a flow rate of 1.5 ml/min. For HPLC assays, the concentration used for each drug was 20μg/ml. The concentrations that offered the best detection were selected for radiolabeled assay. […] The integrity of the CCM during the experiment was monitored by measuring the TEER at the beginning (0 min) and the end of the experiment (240min).
(§3) The results were expressed as apparent permeability coefficient (Papp, unit: cms^-1), the amount of compound transported per second. Papp values were calculated for both AP to BL (PappAtoB), and BL to AP (PappBtoA) movement of the compound. Papp was calculated using the following equation [52, 72]: • Papp (cm/s) = (dQ/dt) x (1/(ACO) • dQ/dt = Steady-state flux (dpm s^-1 or μmol s^-1) • A = Surface area of the filter (cm^2) • CO = Initial concentration in the donor chamber (dpm litre ^-1 or μM)
(§4) The quotient of secretory permeability and absorptive permeability (PappBL-AP/PappAP-BL) constitutes the efflux ratio, while the reverse (PappAP-BL/PappBL-AP) is the uptake ratio [71].

P-gp = conditions: CEM parental and CEMVBL cells; cited from earlier work
in vitro = conditions: human, Mean
Protocol: as §1, §2, §3, §4

[1] = PZQ alone (EFV experiment), 60 min
[2] = PZQ alone (EFV experiment), 120 min, mean
[3] = PZQ alone (EFV experiment), 120 min
[4] = PZQ alone (EFV experiment), 180 min, mean
[5] = PZQ alone (EFV experiment), 180 min
[6] = PZQ alone (EFV experiment), 240 min, mean
[7] = PZQ alone (EFV experiment), 240 min
[8] = PZQ alone (NVP experiment), 60 min, mean
[9] = PZQ alone (NVP experiment), 60 min
[10] = PZQ alone (NVP experiment), 120 min, mean
[11] = PZQ alone (NVP experiment), 120 min
[12] = PZQ alone (NVP experiment), 180 min, mean
[13] = PZQ alone (NVP experiment), 180 min
[14] = PZQ alone (NVP experiment), 240 min, mean
[15] = PZQ alone (NVP experiment), 240 min
[16] = PZQ alone (SQV experiment), 60 min, mean
[17] = PZQ alone (SQV experiment), 60 min
[18] = PZQ alone (SQV experiment), 120 min, mean
[19] = PZQ alone (SQV experiment), 120 min
[20] = PZQ alone (SQV experiment), 180 min, mean
[21] = PZQ alone (SQV experiment), 180 min
[22] = PZQ alone (SQV experiment), 240 min, mean
[23] = PZQ alone (SQV experiment), 240 min
[24] = PZQ alone (SQV experiment), after 60min
[25] = PZQ alone (SQV experiment), after 60min, mean
[26] = labelled drug is the interacting drug

- Apical to basal transport (cumulative, receiver), Mean (Caco-2 cell monolayers; 60 min, mean n=3): 15.06 pmol
- Basal to apical transport (cumulative, receiver), Mean (Caco-2 cell monolayers; 60 min, mean n=3): 16.60 pmol
- PappAB Mean (Caco-2 cell monolayers; 3600 sec, mean n=3): 76.4 ×10⁻⁶ cm/s
- PappBA Mean (Caco-2 cell monolayers; 3600 sec, mean n=3): 85.8 ×10⁻⁶ cm/s
- Apical to basal transport (cumulative, receiver), Mean (Caco-2 cell monolayers; 120 min, mean n=3): 22.74 pmol
- Basal to apical transport (cumulative, receiver), Mean (Caco-2 cell monolayers; 120 min, mean n=3): 20.81 pmol
- Basal to apical transport (cumulative, receiver) (Caco-2 cell monolayers; 180 min): 26.18 pmol and 23.22 pmol
- Apical to basal transport (cumulative, receiver), Mean (Caco-2 cell monolayers; 180 min, mean n=3): 27.30 pmol
- Basal to apical transport (cumulative, receiver), Mean (Caco-2 cell monolayers; 180 min, mean n=3): 23.94 pmol
- Apical to basal transport (cumulative, receiver), Mean (Caco-2 cell monolayers; 240 min, mean n=3): 32.95 pmol
- Basal to apical transport (cumulative, receiver), Mean (Caco-2 cell monolayers; 240 min, mean n=3): 29.18 pmol
- Basal to apical transport Mean (Caco-2 cell monolayers; PZQ alone (EFV experiment), 60 min, mean): 26.40 pmol
- Apical to basal transport Mean (Caco-2 cell monolayers; [2]): 37.71 pmol
- Basal to apical transport Mean (Caco-2 cell monolayers; [2]): 46.61 pmol
- Apical to basal transport Mean (Caco-2 cell monolayers; [4]): 54.47 pmol
- Basal to apical transport Mean (Caco-2 cell monolayers; [4]): 58.63 pmol
- Apical to basal transport Mean (Caco-2 cell monolayers; [6]): 71.45 pmol
- Basal to apical transport Mean (Caco-2 cell monolayers; [6]): 67.31 pmol
- Basal to apical transport (Caco-2 cell monolayers; [7]): 74.78 pmol and 75.20 pmol
- Apical to basal transport Mean (Caco-2 cell monolayers; [8]): 23.43 pmol
- Basal to apical transport Mean (Caco-2 cell monolayers; [8]): 25.07 pmol
- Apical to basal transport Mean (Caco-2 cell monolayers; [10]): 39.93 pmol
- Basal to apical transport Mean (Caco-2 cell monolayers; [10]): 49.95 pmol
- Apical to basal transport Mean (Caco-2 cell monolayers; [12]): 50.15 pmol
- Basal to apical transport Mean (Caco-2 cell monolayers; [12]): 54.69 pmol
- Basal to apical transport (Caco-2 cell monolayers; [13]): 53.14 pmol and 59.00 pmol
- Apical to basal transport Mean (Caco-2 cell monolayers; [14]): 69.10 pmol
- Basal to apical transport Mean (Caco-2 cell monolayers; [14]): 73.24 pmol
- Apical to basal transport Mean (Caco-2 cell monolayers; [16]): 15.06 pmol
- Basal to apical transport Mean (Caco-2 cell monolayers; [16]): 16.60 pmol
- Apical to basal transport Mean (Caco-2 cell monolayers; [18]): 22.74 pmol
- Basal to apical transport Mean (Caco-2 cell monolayers; [18]): 20.81 pmol
- Apical to basal transport Mean (Caco-2 cell monolayers; [20]): 27.30 pmol
- Basal to apical transport Mean (Caco-2 cell monolayers; [20]): 23.94 pmol
- Apical to basal transport (Caco-2 cell monolayers; [21]): 28.02 pmol
- Basal to apical transport (Caco-2 cell monolayers; [21]): 26.18 pmol and 23.22 pmol
- Apical to basal transport Mean (Caco-2 cell monolayers; [22]): 32.95 pmol
- Basal to apical transport Mean (Caco-2 cell monolayers; [22]): 29.18 pmol
- PappAB (Caco-2 cell monolayers; [24]): 8.99 ×10⁻⁶ cm/s and 6.25 ×10⁻⁶ cm/s and 7.68 ×10⁻⁶ cm/s
- PappBA (Caco-2 cell monolayers; [24]): 8.46 ×10⁻⁶ cm/s and 7.75 ×10⁻⁶ cm/s and 9.54 ×10⁻⁶ cm/s
- PappAB Mean (Caco-2 cell monolayers; [25]): 7.64 ×10⁻⁶ cm/s
- PappBA Mean (Caco-2 cell monolayers; [25]): 8.58 ×10⁻⁶ cm/s
- ER Mean (Caco-2 cell monolayers; PZQ alone, mean, MOESM4): 1.14
- PappAB Mean (x10^6) (Caco-2 cell monolayers; PZQ alone, mean, MOESM4): 7.64 x10^6 cm/s
- Effect on the (efflux) transport of SQV (Caco-2 cell monolayers; [26]): did not alter
- Papp A→B at 7200 sec (in vitro; Caco-2, PappAB): 63.8 ×10⁻⁶ cm/s
- Papp A→B at 10800 sec (in vitro; Caco-2, PappAB): 57.7 ×10⁻⁶ cm/s
- Papp A→B at 14400 sec (in vitro; Caco-2, PappAB): 53.9 ×10⁻⁶ cm/s
- Papp B→A at 7200 sec (in vitro; Caco-2, PappBA): 57.2 ×10⁻⁶ cm/s
- Papp B→A at 10800 sec (in vitro; Caco-2, PappBA): 47.9 ×10⁻⁶ cm/s
- Papp B→A at 14400 sec (in vitro; Caco-2, PappBA): 49.6 ×10⁻⁶ cm/s
Compound: O=C(C1CCCCC1)N1CC(=O)N2CCc3ccccc3C2C1 (centres unmarked) [PZQ, praziquantel]
- Basal to apical transport (cumulative, receiver) (Caco-2 cell monolayers; 60 min): 16.40 pmol and 16.26 pmol and 17.14 pmol
- PappAB (Caco-2 cell monolayers; 3600 sec): 89.9 ×10⁻⁶ cm/s and 62.5 ×10⁻⁶ cm/s and 76.8 ×10⁻⁶ cm/s
- PappBA (Caco-2 cell monolayers; 3600 sec): 84.6 ×10⁻⁶ cm/s and 77.5 ×10⁻⁶ cm/s and 95.4 ×10⁻⁶ cm/s
- Basal to apical transport (cumulative, receiver) (Caco-2 cell monolayers; 120 min): 20.68 pmol and 19.96 pmol and 21.78 pmol
- PappAB (Caco-2 cell monolayers; 7200 sec): 65.5 ×10⁻⁶ cm/s and 65.7 ×10⁻⁶ cm/s and 60.2 ×10⁻⁶ cm/s
- PappBA (Caco-2 cell monolayers; 7200 sec): 56.2 ×10⁻⁶ cm/s and 57.9 ×10⁻⁶ cm/s and 57.5 ×10⁻⁶ cm/s
- PappAB (Caco-2 cell monolayers; 10800 sec): 58.3 ×10⁻⁶ cm/s and 51.6 ×10⁻⁶ cm/s and 63.2 ×10⁻⁶ cm/s
- PappBA (Caco-2 cell monolayers; 10800 sec): 56.6 ×10⁻⁶ cm/s and 41.1 ×10⁻⁶ cm/s and 46 ×10⁻⁶ cm/s
- Basal to apical transport (cumulative, receiver) (Caco-2 cell monolayers; 240 min): 26.24 pmol and 28.48 pmol and 32.82 pmol
- PappAB (Caco-2 cell monolayers; 14400 sec): 54.4 ×10⁻⁶ cm/s and 52 ×10⁻⁶ cm/s and 55.5 ×10⁻⁶ cm/s
- PappBA (Caco-2 cell monolayers; 14400 sec): 50.1 ×10⁻⁶ cm/s and 43.3 ×10⁻⁶ cm/s and 55.4 ×10⁻⁶ cm/s
- Apical to basal transport (Caco-2 cell monolayers; [1]): 33.50 pmol and 22.28 pmol and 39.18 pmol
- Basal to apical transport (Caco-2 cell monolayers; [1]): 25.94 pmol and 27.98 pmol and 25.28 pmol
- Apical to basal transport (Caco-2 cell monolayers; [3]): 45.74 pmol and 32.50 pmol and 34.88 pmol
- Basal to apical transport (Caco-2 cell monolayers; [3]): 49.34 pmol and 35.84 pmol and 54.66 pmol
- Apical to basal transport (Caco-2 cell monolayers; [5]): 46.84 pmol and 53.00 pmol and 63.58 pmol
- Basal to apical transport (Caco-2 cell monolayers; [5]): 53.14 pmol and 51.00 pmol and 71.74 pmol
- Apical to basal transport (Caco-2 cell monolayers; [7]): 50.62 pmol and 68.96 pmol and 94.76 pmol
- Apical to basal transport (Caco-2 cell monolayers; [9]): 22.50 pmol and 22.28 pmol and 25.50 pmol
- Basal to apical transport (Caco-2 cell monolayers; [9]): 23.94 pmol and 25.98 pmol and 25.28 pmol
- Apical to basal transport (Caco-2 cell monolayers; [11]): 34.88 pmol and 39.18 pmol and 45.74 pmol
- Basal to apical transport (Caco-2 cell monolayers; [11]): 49.34 pmol and 45.84 pmol and 54.66 pmol
- Apical to basal transport (Caco-2 cell monolayers; [13]): 46.84 pmol and 53.00 pmol and 50.62 pmol
- Apical to basal transport (Caco-2 cell monolayers; [15]): 63.58 pmol and 68.96 pmol and 74.76 pmol
- Basal to apical transport (Caco-2 cell monolayers; [15]): 65.74 pmol and 78.78 pmol and 75.20 pmol
- Apical to basal transport (Caco-2 cell monolayers; [17]): 16.68 pmol and 13.02 pmol and 15.48 pmol
- Basal to apical transport (Caco-2 cell monolayers; [17]): 16.40 pmol and 16.26 pmol and 17.14 pmol
- Apical to basal transport (Caco-2 cell monolayers; [19]): 22.40 pmol and 22.80 pmol and 23.02 pmol
- Basal to apical transport (Caco-2 cell monolayers; [19]): 19.96 pmol and 21.78 pmol and 20.68 pmol
- Apical to basal transport (Caco-2 cell monolayers; [23]): 30.94 pmol and 32.48 pmol and 35.44 pmol
- Basal to apical transport (Caco-2 cell monolayers; [23]): 26.24 pmol and 28.48 pmol and 32.82 pmol
- PappAB (Caco-2 cell monolayers; PZQ alone, MOESM4): 89.9 ×10⁻⁶ cm/s and 62.5 ×10⁻⁶ cm/s and 76.8 ×10⁻⁶ cm/s
- PappBA (Caco-2 cell monolayers; PZQ alone, MOESM4): 84.6 ×10⁻⁶ cm/s and 77.5 ×10⁻⁶ cm/s and 95.4 ×10⁻⁶ cm/s
- Effect on the transport of ARVs (Caco-2 cell monolayers; [26]): did not appear to significantly influence
- P-gp substrate / inhibitor status (P-gp): neither a substrate nor an inhibitor of P-gp
